Experimental findings from ChEMBL document CHEMBL1149068, “Comparison of the anti-herpes simplex virus activities of propolis and 3-methyl-but-2-enyl caffeate” (1994) are described below.

Common to all, as to assay type: functional
In assay [1] the test system is Human alphaherpesvirus 1. Description: Antiviral activity against HSV1 H29S in african green monkey Vero cells assessed as log reduction in viral titers after 0.001 multiple round of replication at 50 ug/ml after 72 hrs.
The test system of assay [2] is Human alphaherpesvirus 1. Description: Antiviral activity against HSV1 H29S in african green monkey Vero cells assessed as log reduction in viral titers after 1 multiple round of replication at 25 ug/ml after 72 hrs.
Assay [3] deals with Human alphaherpesvirus 1. Description: Antiviral activity against HSV1 H29S in african green monkey Vero cells assessed as log reduction in viral titers after 0.001 multiple round of replication at 25 ug/ml after 72 hrs.
Assay [4] relates to Human alphaherpesvirus 1. Description: Antiviral activity against HSV1 H29S in african green monkey Vero cells assessed as log reduction in viral titers after 1 multiple round of replication at 12.5 ug/ml after 72 hrs.
The subject of assay [5] is Human alphaherpesvirus 1. Description: Antiviral activity against HSV1 H29S in african green monkey Vero cells assessed as log reduction in viral titers after 1 multiple round of replication at 6.25 ug/ml after 72 hrs.
For assay [6], the system named is Human alphaherpesvirus 1. Description: Antiviral activity against HSV1 H29S in african green monkey Vero cells assessed as log reduction in viral titers after 0.001 multiple round of replication at 12.5 ug/ml after 72 hrs.
Assay [7] deals with Human alphaherpesvirus 1. Description: Antiviral activity against HSV1 H29S in african green monkey Vero cells assessed as log reduction in viral titers after 1 multiple round of replication at 50 ug/ml after 72 hrs.
Assay [8] deals with Human alphaherpesvirus 1. Description: Antiviral activity against HSV1 H29S in african green monkey Vero cells assessed as log reduction in viral titers after 0.001 multiple round of replication at 6.25 ug/ml after 72 hrs.
Assay [9] has as its system Human alphaherpesvirus 1. Description: Antiviral activity against HSV1 H29S in african green monkey Vero cells assessed as reduction in viral DNA synthesis after 1 multiple round of replication at 60 ug/ml after 18 hrs by agarose gel electrophoresis relative to control.
The subject of assay [10] is Human alphaherpesvirus 1. Description: Antiviral activity against HSV1 H29S in african green monkey Vero cells assessed as reduction in viral DNA synthesis after 1 multiple round of replication at 30 ug/ml after 18 hrs by agarose gel electrophoresis relative to control.
Another assay relates to Influenza A virus. Description: Antiviral activity against influenza A virus Hong Kong assessed as reduction in viral titers of reproduction at 100 ug/ml.

On to `CC(C)=CCOC(=O)/C=C/c1ccc(O)c(O)c1` (stereo in doubt; form 1) [PRENYL CAFFEATE], for which the Activity is 3.1 in the assay on Human alphaherpesvirus 1 [1]; 2.5 in the assay on Human alphaherpesvirus 1 [2]; 2 in the assay on Human alphaherpesvirus 1 [3]; 1.5 in the assay on Human alphaherpesvirus 1 [4]; 1 in the assay on Human alphaherpesvirus 1 [5]; 1.1 with Human alphaherpesvirus 1 [6]. In the assay on Human alphaherpesvirus 1 [7], the Activity is recorded as 2.5.
Regarding `CC(C)=CCOC(=O)/C=C/c1ccc(O)c(O)c1` (stereo in doubt; form 2) [PRENYL CAFFEATE], the Activity in the assay with Human alphaherpesvirus 1 [8] worked out at 0.6; in the assay on Human alphaherpesvirus 1 [1], 3.6; in the assay on Human alphaherpesvirus 1 [2], 2.8; with Human alphaherpesvirus 1 [3], 3.25; in the assay with Human alphaherpesvirus 1 [4] it was 2.5; in the assay with Human alphaherpesvirus 1 [5] it was 1.75. Moreover, the values for the Activity in the assay with Human alphaherpesvirus 1 [6] and in the assay with Human alphaherpesvirus 1 [7] were 1.25 and 2.8, respectively. Besides, the “fold change (FC)” value in the assay on Human alphaherpesvirus 1 [9] is on record as 32; in the assay with Human alphaherpesvirus 1 [10], 8.
As for `Nc1nc2c(ncn2COCCO)c(=O)[nH]1` [ACYCLOVIR], the Activity stood at 2 in the assay with Human alphaherpesvirus 1 [8], 3.25 with Human alphaherpesvirus 1 [1], 3 in the assay with Human alphaherpesvirus 1 [3] and 3 in the assay with Human alphaherpesvirus 1 [6].
As to `COc1cc(/C=C/C(=O)OCCC(C)C)ccc1O` [ISOPENTYL FERULATE], the “Selectivity Index” value in the assay on Influenza A virus is reported as 8.
